Calls of active or inactive are those of the source.
Assays:
[1] = molecular target: T1, Fructose-bisphosphate aldolase (Mycobacterium tuberculosis, UniProt P9WQA3); test: Fluorescence-based biochemical high throughput dose response assay for inhibitors of the fructose-bisphosphate aldolase (FBA) of M. tuberculosis.; assay type: functional
T1 sequence (P9WQA3 whole entry): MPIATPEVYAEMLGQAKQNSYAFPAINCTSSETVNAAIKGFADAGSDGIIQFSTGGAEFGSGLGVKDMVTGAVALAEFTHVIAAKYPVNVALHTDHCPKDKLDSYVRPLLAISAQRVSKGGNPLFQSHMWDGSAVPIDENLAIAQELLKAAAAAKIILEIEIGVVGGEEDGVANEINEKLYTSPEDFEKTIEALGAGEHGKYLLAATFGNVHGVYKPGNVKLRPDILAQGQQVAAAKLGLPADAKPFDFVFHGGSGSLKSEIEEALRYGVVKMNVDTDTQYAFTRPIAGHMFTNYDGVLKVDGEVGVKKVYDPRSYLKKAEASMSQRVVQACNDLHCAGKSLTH

SN12K1 = test: cells; assay type: functional; details: Homo sapiens
P388/ADR = test: cells; assay type: functional; details: Mus musculus
P388 = test: cells; assay type: functional; details: Mus musculus
[2] = molecular target: T2, Ubiquitin-conjugating enzyme E2 N (Homo sapiens, UniProt P61088); assay type: functional
T2 sequence (P61088 whole entry): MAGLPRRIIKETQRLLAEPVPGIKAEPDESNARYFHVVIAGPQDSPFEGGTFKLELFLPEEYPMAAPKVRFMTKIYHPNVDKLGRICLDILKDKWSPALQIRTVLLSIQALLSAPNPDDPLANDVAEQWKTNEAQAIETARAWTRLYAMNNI

[3] = molecular target: Neurotensin receptor type 1 (Homo sapiens, UniProt P30989); assay type: functional;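 further: Image-based confirmatory dose-response assay measuring agonist activity at NTR1; NTR1-expressing U2OS osteosarcoma cells imaged for beta-arrestin GFP spot formation; agonist potency where compounds increase beta-arrestin recruitment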
[4] = Luminescence Cell-Based Dose Retest to Confirm Inhibitors of Cancer Stem Cells. [Related pubchem assays (depositor defined):AID2717, AID2721]; assay type: functional; details: Homo sapiens
Paired box protein Pax-8 = Paired box protein Pax-8 (Homo sapiens, UniProt Q06710); test: inhibitors of PAX8-driven TPO luciferase reporter, dose response, RMG-I cells, cherry-pick (AID 687027); assay type: functional, cell-based;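 further: luciferase reporter driven by Pax8 target thyroperoxidase promoter measured by SteadyGlo luminescence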
[5] = IGROV1 ovarian cancer cell cytotoxicity, dose response, PAX8 inhibitor project, plate reader, dry powder samples (AID 743043); assay type: functional, cell-based; details: IGROV-1
[6] = cytotoxicity in OVCAR8 ovarian cancer cells, dose response, PAX8 project, cell-based, plate reader, dry powder samples (AID 743197); assay type: functional; details: OVCAR-8
[7] = P. falciparum Dd2 growth inhibitors, dose response, SYBR Green, cherry-picked samples (AID 1159567); assay type: functional, cell-based
[8] = NIH:OVCAR-3 ovarian cancer cell cytotoxicity, dose response, PAX8 inhibitor project, plate reader, dry powder samples (AID 743044); assay type: functional, cell-based
[9] = A Cell Based Secondary Assay To Explore Cytotoxicity of Compounds that Sensitize Mycobacterium Tuberculosis to Beta-Lactam Antibiotics.; assay type: functional
[10] = cytotoxicity in HEK-293T cells, dose response, cytotoxicity control for BCR NF-kB inhibitor project, luminescence, B-cell screen hits (AID 489021); assay type: functional, cell-based;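 further: HEK-293T cells carrying an NF-kB luciferase reporter; cells exposed to compound for about 14 hours before viability readout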
[11] = molecular target: T2, Ubiquitin-conjugating enzyme E2 N; assay type: functional; remark: listed apart in the source
Bcl-2-related protein A1 = molecular target: T3, Bcl-2-related protein A1 (Mus musculus, UniProt Q07440); assay type: functional;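 further: confirmatory dose–response counterscreen on Bfl-1, used to check hits from a UBC13 polyubiquitin inhibitor campaign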
T3 sequence (Q07440 whole entry): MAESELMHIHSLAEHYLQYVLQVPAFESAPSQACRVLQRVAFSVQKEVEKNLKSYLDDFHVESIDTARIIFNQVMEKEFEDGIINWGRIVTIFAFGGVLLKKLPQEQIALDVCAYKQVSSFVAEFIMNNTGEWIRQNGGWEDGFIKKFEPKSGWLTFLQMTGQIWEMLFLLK

[12] = molecular target: T4, DNA repair protein RAD52 homolog (Homo sapiens, UniProt P43351); assay type: functional, biochemical
T4 sequence (P43351 whole entry): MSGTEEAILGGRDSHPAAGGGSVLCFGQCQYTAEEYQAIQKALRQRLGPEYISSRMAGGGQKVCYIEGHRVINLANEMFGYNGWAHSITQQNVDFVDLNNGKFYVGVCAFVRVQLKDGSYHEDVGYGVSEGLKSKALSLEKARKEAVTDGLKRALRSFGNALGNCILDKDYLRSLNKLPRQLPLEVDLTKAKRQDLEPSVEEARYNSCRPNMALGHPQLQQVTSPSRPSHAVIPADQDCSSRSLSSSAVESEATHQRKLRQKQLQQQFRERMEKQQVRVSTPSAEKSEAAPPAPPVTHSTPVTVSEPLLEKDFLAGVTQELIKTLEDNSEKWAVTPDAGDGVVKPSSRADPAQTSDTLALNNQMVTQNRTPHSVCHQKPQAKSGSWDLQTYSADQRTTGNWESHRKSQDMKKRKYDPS

Major prion protein = Major prion protein (Homo sapiens, UniProt P04156); assay type: functional, cell-based
H9c2 = test: cells; assay type: functional, cell-based; details: Rattus norvegicus, H9c2, Myocardium;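 further: confirmatory concentration-response retest of ultra-high-throughput screening hits for modulation of myocardial damage; cell death induced by hydrogen peroxide oxidative stress; compound pretreatment for 60 min then peroxide exposure for 2 h; potency is for protecting the cells against peroxide damage rather than for killing them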
cells [13] = test: cells
cells [14] = assay type: functional, cell-based
cells [15] = assay type: functional, cell-based; remark: listed apart in the source
[16] = molecular target: T5, Trace amine-associated receptor 1 (Homo sapiens, UniProt Q96RJ0); test: Counterscreen for agonists of the human trace amine associated receptor 1 (hTAAR1): Fluorescence-based cell-based high throughput dose response assay to identify hTAAR1 agonist that also desensitize TAAR1 receptor response.; assay type: functional
T5 sequence (Q96RJ0 whole entry): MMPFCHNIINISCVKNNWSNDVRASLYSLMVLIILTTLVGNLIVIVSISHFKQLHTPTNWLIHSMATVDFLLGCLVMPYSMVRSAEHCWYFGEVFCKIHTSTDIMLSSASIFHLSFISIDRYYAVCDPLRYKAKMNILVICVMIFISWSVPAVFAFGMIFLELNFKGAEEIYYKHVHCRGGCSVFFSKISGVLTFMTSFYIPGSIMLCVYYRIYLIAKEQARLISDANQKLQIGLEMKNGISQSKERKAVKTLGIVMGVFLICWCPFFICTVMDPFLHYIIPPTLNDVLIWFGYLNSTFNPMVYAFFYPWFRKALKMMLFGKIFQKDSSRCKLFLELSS

[17] = molecular target: T5, Trace amine-associated receptor 1; test: Fluorescence-based cell-based high throughput dose response assay to identify agonists of the human trace amine associated receptor 1 (TAAR1).; assay type: functional
[18] = off-target signal loss in HeLa-CEM21 co-culture – HeLa F-luc CTL cells, cherry-picked, counter-screen for HIV-1 Env fusion inhibitor project, dose response (AID 652040); assay type: functional, cell-based;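 further: potency for signal decrease marking cytotoxic or nonspecific inhibition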
[19] = inhibitors of HIV Env-driven cell fusion, dose response, cherry-pick (AID 652057); assay type: functional, cell-based
[20] = molecular target: T6, DNA repair and recombination protein RAD54-like (Homo sapiens, UniProt Q92698); test: inhibitors of human RAD54 branch migration, confirmation, biochemical, fluorescence, cherry-picked samples, dose series (AID 651657); assay type: functional
T6 sequence (Q92698 whole entry): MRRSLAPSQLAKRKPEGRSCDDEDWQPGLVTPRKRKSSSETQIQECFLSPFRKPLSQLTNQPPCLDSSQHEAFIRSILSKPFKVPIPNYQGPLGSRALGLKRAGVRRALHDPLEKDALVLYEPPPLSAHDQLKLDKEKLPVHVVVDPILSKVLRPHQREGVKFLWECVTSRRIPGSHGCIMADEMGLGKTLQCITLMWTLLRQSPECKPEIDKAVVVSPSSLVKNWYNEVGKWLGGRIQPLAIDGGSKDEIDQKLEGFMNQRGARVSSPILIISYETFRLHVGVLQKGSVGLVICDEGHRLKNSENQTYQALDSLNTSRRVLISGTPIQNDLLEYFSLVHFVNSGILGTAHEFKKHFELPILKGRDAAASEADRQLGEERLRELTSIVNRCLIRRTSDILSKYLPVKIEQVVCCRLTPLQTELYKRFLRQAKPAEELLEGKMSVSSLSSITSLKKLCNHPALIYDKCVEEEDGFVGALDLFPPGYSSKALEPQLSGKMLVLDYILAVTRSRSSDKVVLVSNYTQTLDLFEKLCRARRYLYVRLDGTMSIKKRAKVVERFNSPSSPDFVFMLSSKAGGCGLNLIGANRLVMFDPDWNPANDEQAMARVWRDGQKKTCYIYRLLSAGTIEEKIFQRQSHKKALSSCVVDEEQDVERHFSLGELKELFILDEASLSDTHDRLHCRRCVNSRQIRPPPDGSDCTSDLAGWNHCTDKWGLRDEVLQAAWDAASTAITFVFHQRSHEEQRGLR

cells [21] = test: cells; remark: listed apart in the source
Vero = test: cells; assay type: functional, cell-based; details: Chlorocebus sabaeus
[22] = HEp-2 cell cytotoxicity, dose response, cytotoxicity control for RSV inhibitor project, HTS (AID 2410); assay type: functional; details: human respiratory syncytial virus
[23] = molecular target: FAD-linked sulfhydryl oxidase ALR (Homo sapiens, UniProt P55789); test: inhibitors of human ALR sulfhydryl oxidase, dose response, biochemical, H2O2 detection, luminescence, cherry-pick (AID 493248)

SMILES: COc1ccc(-c2cc(C(=O)NCC3CCCO3)c3cc(C(C)C)ccc3n2)cc1 (stereo not drawn)
- IC50 [1]: 0.797 µM (active)

SMILES: COc1cc([C@@H]2c3cc4c(cc3[C@@H](OC3OC5CO[C@@H](c6cccs6)OC5C(O)C3O)[C@H]3COC(=O)[C@H]23)OCO4)cc(OC)c1O (stereo partly drawn)
- GI50 (SN12K1): 0.00838 µM (active)
- GI50 (P388/ADR): 0.877 µM (active)
- GI50 (P388): 0.00815 µM (active)

SMILES: CCCCCc1cc(=O)oc2c(C(CCN3CCCCC3)c3ccc(OC)cc3)c(OC)cc(OC)c12 (stereo not drawn)
- IC50 [2]: > 20 µM (inactive)
- EC50 [3]: 15.3 µM (active)
- AC50 [4]: 6.49 µM (active)

SMILES: C[C@@H]1CN([C@H](C)CO)C(=O)c2c(c3ccccc3n2C)-c2ccccc2CO[C@H]1CN(C)S(=O)(=O)c1ccc(C(F)(F)F)cc1
- AC50 (Paired box protein Pax-8): 4.41 µM (active)
- AC50 [5]: 42.5 µM (active)
- AC50 [6]: 27 µM (active)
- AC50 [7]: 2.68 µM (active)
- AC50 [8]: 23.5 µM (active)

SMILES: CCOC(=O)c1nn(-c2ccccc2)c(C#N)c1NC(=O)c1nn(CC)cc1Br
- CC50 [9]: > 40 µM (active)
- IC50 [10]: > 80 µM (inactive)

SMILES: C#CCOCCOCCOCCNc1nc(N2CCN(C(=O)[C@H](CCCCN)n3cc([C@@H](N)CC(N)=O)nn3)CC2)nc(N2CCN(C(=O)[C@H](CCCCN)n3cc([C@@H](N)CC(N)=O)nn3)CC2)n1
- IC50 [2]: 17.3 µM (active)
- IC50 [11]: 12.5 µM (active)
- IC50 (Bcl-2-related protein A1): > 20 µM (inactive)

SMILES: NC(=O)c1ncn2c(=O)n(CCCl)nnc12 [MITOZOLOMIDE]
- GI50 (SN12K1): 75.2 µM (inactive)
- GI50 (P388/ADR): 12.3 µM (inactive)
- GI50 (P388): 13.8 µM (inactive)

SMILES: Cc1ccn2cc(-c3cnoc3C)nc2c1
- IC50 [1]: > 1.11 µM (active)

SMILES: CN(C)CCCN(C(=O)c1ccc(C(=O)c2ccccc2)cc1)c1nc2cc3c(cc2s1)OCCO3
- IC50 [2]: 7.1 µM (active)
- AC50 [12]: 14.7 µM (active)
- IC50 [11]: 3.92 µM (active)
- IC50 (Bcl-2-related protein A1): > 20 µM (inactive)

SMILES: COc1ccc(Nc2nnc(-c3ccc(O)cc3)c3ccccc23)cc1C(N)=O
- IC50 (Major prion protein): 0.759 µM (active)
- IC50 (H9c2): 15 µM (active)
- IC50 (cells [13]): > 138 µM (inactive)

SMILES: O=C(O)C1C2C=CC(O2)C1C(=O)NCCc1cccc(Cl)c1 (stereo not drawn)
- EC50 (cells [14]): > 29.9 µM (inactive)
- IC50 (cells [15]): > 29.9 µM (inactive)
- IC50 [16]: 3.1 µM (active)
- EC50 [17]: 0.307 µM (active)

SMILES: CS(=O)(=O)N(Cc1ccc(Cl)cc1)c1ccc(C(=O)NCCC2=CCCCC2)cc1
- CC50 [9]: > 40 µM (active)
- AC50 [18]: 6.69 µM (active)
- AC50 [19]: 1.92 µM (active)

SMILES: COc1ccc2[nH]c3c(S)ncnc3c2c1
- IC50 (cells [13]): > 138 µM (inactive)

SMILES: c1ccc(CCn2nnnc2C(c2cccs2)N2CCN(Cc3ccc4c(c3)OCO4)CC2)cc1 (stereo not drawn)
- EC50 (cells [14]): > 29.9 µM (inactive)
- IC50 (cells [15]): > 29.9 µM (inactive)
- IC50 [16]: 2.19 µM (active)
- EC50 [17]: 0.389 µM (active)

SMILES: Cn1c(NCCN2CCCC2)nc2cc(-c3ccsc3)sc2c1=O
- AC50 [20]: 55.8 µM (active)

SMILES: COc1ccccc1OCC(=O)Nc1nc2c(s1)CCCC2
- IC50 (cells [21]): 28.7 µM (active)
- IC50 (Vero): 24.3 µM (active)
- CC50 [22]: 29.5 µM (active)

SMILES: COc1ccc2[nH]c3c(=S)[nH]cnc3c2c1
- IC50 (Major prion protein): 5.91 µM (active)
- AC50 [23]: 0.035 µM (active)

SMILES: Cc1c2ccncc2c(C)c2c1[nH]c1ccc(OCCN(C)C)cc12
- GI50 (SN12K1): 0.148 µM (active)
- GI50 (P388/ADR): 0.0283 µM (active)
- GI50 (P388): 0.0153 µM (active)

SMILES: CCC1OC2(C)OC(=N)C1(C#N)C(C#N)(C#N)C2c1ccccc1 (stereo not drawn)
- IC50 [1]: > 1.11 µM (active)

SMILES: COC1(O)c2cccc(Cl)c2C(=O)N1C1(C(N)=O)CCCCC1 (stereo not drawn)
- GI50 (SN12K1): > 100 µM (inactive)
- GI50 (P388/ADR): > 100 µM (inactive)
- GI50 (P388): > 100 µM (inactive)

— ChEMBL document CHEMBL1201862, “PubChem BioAssay data set” (2004)
